Measured values reported in US6770596B1, “Fused tricyclic compounds, process for their preparation, and herbicidal compositions containing them” (Ishihara Sangyo Kaisha Ltd., priority 2002, dated 2004).

Assays:
Type in all cases: in vivo
[1] = test system: ivyleaf morningglory (Ipomoea hederacea, IPH); experiment: Post-emerge test, ivyleaf morningglory; conditions: 250 g ai/ha, 14 days after application, rating scale 0-100 (0 no damage, 100 complete death)
How it was run: (§1)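 Greenhouse pot plants in sandy loam were sown 8-21 days before treatment and sprayed at about the 2-3 leaf stage. The spray was acetone solution plus 0.25% v/v non-ionic surfactant, 187 l/ha, at 8-1000 g ai/ha from a track sprayer. Phytotoxicity was scored 0-100 (0 no damage, 100 all plants dead) 14 days later.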

[2] = test system: barnyardgrass (Echinachloa crus-galli, ECC); experiment: Pre-emerge test, barnyardgrass; conditions: 250 g ai/ha, 14 days after application, rating scale 0-100 (0 no damage, 100 complete death)
How it was run: (§2)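 Greenhouse pre-emergence screen: track-sprayer application of compounds in acetone at 187 l/ha, rates 8 g ai/ha to 1000 g ai/ha, one day after planting in sandy loam pots. Damage scored at 14 days, 0 (none) to 100 (all plants dead).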

[3] = test system: green foxtail (Setaria viridis, SEV); experiment: Pre-emerge test, green foxtail; conditions: 250 g ai/ha, 14 days after application, rating scale 0-100 (0 no damage, 100 complete death)
How it was run: as §2

[4] = test system: lambsquarters (Chenopodium album, CHA); experiment: Post-emerge test, lambsquarters; conditions: 250 g ai/ha, 14 days after application, rating scale 0-100 (0 no damage, 100 complete death)
How it was run: as §1

[5] = test system: cocklebur (Xanthium strumariunt, XAS); experiment: Post-emerge test, cocklebur; conditions: 250 g ai/ha, 14 days after application, rating scale 0-100 (0 no damage, 100 complete death)
How it was run: as §1

[6] = test system: common ragweed (Ambrosia artemisiifolia L., AML); experiment: Post-emerge test, common ragweed; conditions: 250 g ai/ha, 14 days after application, rating scale 0-100 (0 no damage, 100 complete death)
How it was run: as §1

[7] = test system: ivyleaf morningglory (Ipomoea hederacea, IPH); experiment: Pre-emerge test, ivyleaf morningglory; conditions: 250 g ai/ha, 14 days after application, rating scale 0-100 (0 no damage, 100 complete death)
How it was run: as §2

[8] = test system: lambsquarters (Chenopodium album, CHA); experiment: Pre-emerge test, lambsquarters; conditions: 250 g ai/ha, 14 days after application, rating scale 0-100 (0 no damage, 100 complete death)
How it was run: as §2

[9] = test system: johnsongrass (Sorghum halepense, SOH); experiment: Pre-emerge test, johnsongrass; conditions: 250 g ai/ha, 14 days after application, rating scale 0-100 (0 no damage, 100 complete death)
How it was run: as §2

[10] = test system: large crabgrass (Digitaria sanguinalis, DIS); experiment: Post-emerge test, large crabgrass; conditions: 250 g ai/ha, 14 days after application, rating scale 0-100 (0 no damage, 100 complete death)
How it was run: as §1

[11] = test system: upland rice (Oryza sp., var.Tebonnet, RICE); experiment: Pre-emerge test, crop damage upland rice
How it was run: (§3)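 Sandy loam soil mix, 10 cm pots, sowing 1 d before treatment; spray volume 187 l/ha, rates 8–1000 g ai/ha in acetone; 0–100 visual rating at 14 d.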

[12] = test system: green foxtail (Setaria viridis, SEV); experiment: Post-emerge test, green foxtail; conditions: 250 g ai/ha, 14 days after application, rating scale 0-100 (0 no damage, 100 complete death)
How it was run: as §1

[13] = test system: wheat (Triticum aestivum); experiment: Pre-emerge test, crop damage wheat
How it was run: as §3

[14] = test system: velvetleaf (Abutilon theophrasti, ABT); experiment: Post-emerge test, velvetleaf; conditions: 250 g ai/ha, 14 days after application, rating scale 0-100 (0 no damage, 100 complete death)
How it was run: as §1

[15] = test system: field corn (Zea mays L., var. Dekalb 535, CORN); experiment: Pre-emerge test, crop damage field corn
How it was run: as §3

[16] = test system: wheat (Triticum aestivum); experiment: Post-emerge test, crop damage wheat
How it was run: as §1

[17] = test system: sicklepod (Cassia obtusifolia, CAO); experiment: Pre-emerge test, sicklepod; conditions: 250 g ai/ha, 14 days after application, rating scale 0-100 (0 no damage, 100 complete death)
How it was run: as §2

[18] = test system: soybean (Glycine max L., var. Pella 86, SOY); experiment: Pre-emerge test, crop damage soybean
How it was run: as §3

[19] = test system: sicklepod (Cassia obtusifolia, CAO); experiment: Post-emerge test, sicklepod; conditions: 250 g ai/ha, 14 days after application, rating scale 0-100 (0 no damage, 100 complete death)
How it was run: as §1

[20] = test system: johnsongrass (Sorghum halepense, SOH); experiment: Post-emerge test, johnsongrass; conditions: 250 g ai/ha, 14 days after application, rating scale 0-100 (0 no damage, 100 complete death)
How it was run: as §1

[21] = test system: cocklebur (Xanthium strumariunt, XAS); experiment: Pre-emerge test, cocklebur; conditions: 250 g ai/ha, 14 days after application, rating scale 0-100 (0 no damage, 100 complete death)
How it was run: as §2

[22] = test system: redroot pigweed (Amaranthus retroflexus, AMR); experiment: Pre-emerge test, redroot pigweed; conditions: 250 g ai/ha, 14 days after application, rating scale 0-100 (0 no damage, 100 complete death)
How it was run: as §2

[23] = test system: redroot pigweed (Amaranthus retroflexus, AMR); experiment: Post-emerge test, redroot pigweed; conditions: 250 g ai/ha, 14 days after application, rating scale 0-100 (0 no damage, 100 complete death)
How it was run: as §1

[24] = test system: field corn (Zea mays L., var. Dekalb 535, CORN); experiment: Post-emerge test, crop damage field corn
How it was run: as §1

[25] = test system: velvetleaf (Abutilon theophrasti, ABT); experiment: Pre-emerge test, velvetleaf; conditions: 250 g ai/ha, 14 days after application, rating scale 0-100 (0 no damage, 100 complete death)
How it was run: as §2

[26] = test system: common ragweed (Ambrosia artemisiifolia L., AML); experiment: Pre-emerge test, common ragweed; conditions: 250 g ai/ha, 14 days after application, rating scale 0-100 (0 no damage, 100 complete death)
How it was run: as §2

[27] = test system: barnyardgrass (Echinachloa crus-galli, ECC); experiment: Post-emerge test, barnyardgrass; conditions: 250 g ai/ha, 14 days after application, rating scale 0-100 (0 no damage, 100 complete death)
How it was run: as §1

[28] = test system: large crabgrass (Digitaria sanguinalis, DIS); experiment: Pre-emerge test, large crabgrass; conditions: 250 g ai/ha, 14 days after application, rating scale 0-100 (0 no damage, 100 complete death)
How it was run: as §2

[29] = test system: soybean (Glycine max L., var. Pella 86, SOY); experiment: Post-emerge test, crop damage soybean
How it was run: as §1

[30] = test system: upland rice (Oryza sp., var.Tebonnet, RICE); experiment: Post-emerge test, crop damage upland rice
How it was run: as §1

[31] = pre-emerge, 250 g ai/ha, 14 days after application, rating scale 0-100 (0 no damage, 100 complete death)
[32] = post-emerge, 250 g ai/ha, 14 days after application, rating scale 0-100 (0 no damage, 100 complete death)
[33] = var. Tebonnet, Oryza sp. (upland rice), in vivo, 14 days
[34] = Triticum aestivum (wheat), in vivo, 14 days
[35] = var. Dekalb 535, Zea mays (field corn), in vivo, 14 days
[36] = var. Pella 86, Glycine max (soybean), in vivo, 14 days

| SMILES | Post-emerge Herbicidal Activity IPH (phytotoxicity rating) [1] | Pre-emerge Herbicidal Activity ECC (phytotoxicity rating) [2] | Pre-emerge Herbicidal Activity SEV (phytotoxicity rating) [3] | Post-emerge Herbicidal Activity CHA (phytotoxicity rating) [4] | Post-emerge Herbicidal Activity XAS (phytotoxicity rating) [5] | Post-emerge Herbicidal Activity AML (phytotoxicity rating) [6] | Pre-emerge Herbicidal Activity IPH (phytotoxicity rating) [7] | Pre-emerge Herbicidal Activity CHA (phytotoxicity rating) [8] | Pre-emerge Herbicidal Activity SOH (phytotoxicity rating) [9] | Post-emerge Herbicidal Activity DIS (phytotoxicity rating) [10] | Post-emerge Herbicidal Activity SEV (phytotoxicity rating) [12] | Post-emerge Herbicidal Activity ABT (phytotoxicity rating) [14] | Pre-emerge Herbicidal Activity CAO (phytotoxicity rating) [17] | Post-emerge Herbicidal Activity CAO (phytotoxicity rating) [19] | Post-emerge Herbicidal Activity SOH (phytotoxicity rating) [20] | Pre-emerge Herbicidal Activity XAS (phytotoxicity rating) [21] | Pre-emerge Herbicidal Activity AMR (phytotoxicity rating) [22] | Post-emerge Herbicidal Activity AMR (phytotoxicity rating) [23] | Pre-emerge Herbicidal Activity ABT (phytotoxicity rating) [25] | Pre-emerge Herbicidal Activity AML (phytotoxicity rating) [26] | other results |
| --- | --- | --- | --- | --- | --- | --- | --- | --- | --- | --- | --- | --- | --- | --- | --- | --- | --- | --- | --- | --- | --- |
| Cn1nc(-c2c(F)cc3c4c2NC(=O)C(c2ccccc2)N4C(=O)CO3)c(Cl)c1OC(F)F (stereo not drawn) [1-33] | 98 | 55 | 99 | 99 | 70 | 70 | 70 | 100 | 70 | 25 | 95 | 100 | 65 | 60 | 65 | 75 | 100 | 99 | 100 | 100 | Pre-emerge crop damage RICE (phytotoxicity rating) [11, 31]: 10; Pre-emerge crop damage WHEAT (phytotoxicity rating) [13, 31]: 10; Pre-emerge crop damage CORN (phytotoxicity rating) [15, 31]: 0; Post-emerge crop damage WHEAT (phytotoxicity rating) [16, 32]: 65; Pre-emerge crop damage SOY (phytotoxicity rating) [18, 31]: 15; Post-emerge crop damage CORN (phytotoxicity rating) [24, 32]: 25; Post-emerge Herbicidal Activity ECC (phytotoxicity rating) [27]: 65; Pre-emerge Herbicidal Activity DIS (phytotoxicity rating) [28]: 100; Post-emerge crop damage SOY (phytotoxicity rating) [29, 32]: 60; Post-emerge crop damage RICE (phytotoxicity rating) [30, 32]: 95 |
| O=C1CN2C(=O)COc3cc(F)c(N4C(=O)C5=C(CCCC5)C4=O)c(c32)N1 [1-37, 9-Flouro-8-(4,5,6,7-tetrahydro-2H-isoindole-1,3-dione-2-yl)-5H-pyrazino[1,2,3de]-1,4-benzoxazine-3,6(2H, 7H)-dione] | 100 | 15 | 0 | 85 | 95 | 70 | 85 | 100 | 25 | 0 | 75 | 100 | 40 | 15 | 50 | 35 | 100 | 100 | 60 | 98 | Pre-emerge crop damage RICE (phytotoxicity rating) [11, 31]: 20; Pre-emerge crop damage WHEAT (phytotoxicity rating) [13, 31]: 20; Pre-emerge crop damage CORN (phytotoxicity rating) [15, 31]: 15; Post-emerge crop damage WHEAT (phytotoxicity rating) [16, 32]: 10; Pre-emerge crop damage SOY (phytotoxicity rating) [18, 31]: 10; Post-emerge crop damage CORN (phytotoxicity rating) [24, 32]: 35; Post-emerge Herbicidal Activity ECC (phytotoxicity rating) [27]: 60; Pre-emerge Herbicidal Activity DIS (phytotoxicity rating) [28]: 40; Post-emerge crop damage SOY (phytotoxicity rating) [29, 32]: 55; Post-emerge crop damage RICE (phytotoxicity rating) [30, 32]: 80 |
| C[C@H]1Oc2cc(F)c(-c3nn(C)c(C(F)(F)F)c3Cl)c3c2N(CC(=O)N3)C1=O [1-48, 8-[4-Chloro-1-methyl-5-(trifluoromethyl)-1H-pyrazol-3-yl]-9-fluoro-2-R-methyl-5H-pyrazino[1,2,3-de]-1,4-benzoxazine-3,6(2H, 7H)-dione] | 100 | 100 | 100 | 100 | 100 | 80 | 100 | 100 | 100 | 50 | 98 | 100 | 100 | 65 | 30 | 60 | 100 | 100 | 100 | 99 | Pre-emerge crop damage RICE (phytotoxicity rating) [11, 33]: 55; Pre-emerge crop damage WHEAT (phytotoxicity rating) [13, 34]: 25; Pre-emerge crop damage CORN (phytotoxicity rating) [15, 35]: 70; Post-emerge crop damage WHEAT (phytotoxicity rating) [16, 34]: 0; Pre-emerge crop damage SOY (phytotoxicity rating) [18, 36]: 40; Post-emerge crop damage CORN (phytotoxicity rating) [24, 35]: 10; Post-emerge Herbicidal Activity ECC (phytotoxicity rating) [27]: 95; Pre-emerge Herbicidal Activity DIS (phytotoxicity rating) [28]: 100; Post-emerge crop damage SOY (phytotoxicity rating) [29, 36]: 65; Post-emerge crop damage RICE (phytotoxicity rating) [30, 33]: 60 |
